Where two headings read alike, the source gives them in different places.
What was measured:
[1] = tested on: male CD IGS (Sprague Dawley derived) rats; assay: Measurement of hypothermia (rectal temperature); assay type: in vivo; details: Rattus norvegicus, sc, read-out: Hypothermia MED
Description: The induction of hypothermia was determined for compounds of the invention according to the methods described in Freedman, et al., European Journal of Pharmacology, 187 (1990), 193-199, which is incorporated by reference herein. Dose range and time course for cholinergic effects of the compounds of the invention was also determined. […]
(§1) The dose range and time course for cholinergic effects of the compounds of the invention was determined as described below.
(§2) Subjects: Two hundred eight male CD IGS (Sprague Dawley derived) rats were received at 126-150 grams and maintained four per cage on a regular light/dark cycle (lights on 0600-1800) with ad libitum food and water for about 1 week before commencement of experimentation. Apparatus: Injection was done with a 25-gauge ⅝-inch needle on a 1-mL tuberculin syringe. Observation was done in a 5½-×10-inch polycarbonate rat housing cage. Temperature was taken with a rat rectal probe on a Model BAT-12 electronic thermometer. Compound Preparation: Test compounds were dissolved for example, in 0.9% saline. Concentrations for lower doses were prepared by taking aliquots from higher concentrations and diluting. Injection volumes were 1 mL/kg, if the test compound was sufficiently soluble. If less soluble, maximum injection volume were 5 mL/kg. Route of administration was s.c. As sample protocol is as follows: Treatment Groups included (N=3, with 6 for Saline)
(§3) Procedure: The rats were brought to the test room in the home cage. Baseline temperature were be taken just before injection. After injection s.c., the rat was placed in the observation cage. At 0.5, 1, 2, and 4 hours after injection, it was observed briefly for gross signs; salivation was scored as absent, clearly present, or copious; and rectal temperature was taken. In observation for gross signs, special attention was paid to fasciculation (muscle twitch), tremor/ataxia, and abnormal gait.

[2] = molecular target: T1, human recombinant acetylcholinesterase (Homo sapiens, UniProt P22303); assay: Inhibition of acetylcholinesterase in vitro (modified Ellman colorimetric method, Dixon plot); assay type: biochemical; details: human recombinant AChE, 25° C., 30 minutes preincubation, 0.3 mM acetylthiocholine, pH 8
T1 construct: purchased Sigma Chemical Co (St. Louis, Mo.) C1682

[3] = molecular target: AChE (Homo sapiens, UniProt P22303); assay: In vitro screening assay, AChE inhibition (spectrophotometric quantitation of thiocholine); assay type: biochemical; details: 700 μM acetylthiocholine, pH 7.4, 25° C.; for AChEI (%) 1 μM: 1 μM compound; for AChEI (%) 10 μM: 10 μM compound
[4] = molecular target: BuChE (Homo sapiens, UniProt P06276); assay: In vitro screening assay, BuChE inhibition; assay type: biochemical; details: for BuChEI (%) 10 μM: 10 μM compound; for BuChEI (%) 1 μM: 1 μM compound
Description: An in vitro screening assay with compounds of the invention was completed according to the methods described in Ellman G L et al., Biochem Pharmacol., 7:88-95 (1961) and in Nadarajah B, J. Anal. Toxicol., 16:192-193 (1992), both of which are herein incorporated by reference in their entireties.
An in vitro screening assay with compounds of the invention was completed according to the methods described in Ellman G L et al., Biochem Pharmacol., 7:88-95 (1961) and in Nadarajah B, J. Anal. Toxicol., 16:192-193 (1992), both of which are herein incorporated by reference in their entireties. The assay method was completed according to the following: […]

[5] = tested on: male CD IGS (Sprague Dawley derived) rats; assay: Determination of the dose range and time course for cholinergic effects (gross signs, salivation); details: s.c., doses 1, 3, 10, 30 and 100 mg/kg; observed up to 4 hours
Description: The induction of hypothermia was determined for compounds of the invention according to the methods described in Freedman, et al., European Journal of Pharmacology, 187 (1990), 193-199, which is incorporated by reference herein. Dose range and time course for cholinergic effects of the compounds of the invention was also determined.
as §1, §2, §3

[6] = minimum effective dose for hypothermia, s.c., temperature at 0.5, 1, 2 and 4 hours after injection

T1 sequence (P22303 32-614): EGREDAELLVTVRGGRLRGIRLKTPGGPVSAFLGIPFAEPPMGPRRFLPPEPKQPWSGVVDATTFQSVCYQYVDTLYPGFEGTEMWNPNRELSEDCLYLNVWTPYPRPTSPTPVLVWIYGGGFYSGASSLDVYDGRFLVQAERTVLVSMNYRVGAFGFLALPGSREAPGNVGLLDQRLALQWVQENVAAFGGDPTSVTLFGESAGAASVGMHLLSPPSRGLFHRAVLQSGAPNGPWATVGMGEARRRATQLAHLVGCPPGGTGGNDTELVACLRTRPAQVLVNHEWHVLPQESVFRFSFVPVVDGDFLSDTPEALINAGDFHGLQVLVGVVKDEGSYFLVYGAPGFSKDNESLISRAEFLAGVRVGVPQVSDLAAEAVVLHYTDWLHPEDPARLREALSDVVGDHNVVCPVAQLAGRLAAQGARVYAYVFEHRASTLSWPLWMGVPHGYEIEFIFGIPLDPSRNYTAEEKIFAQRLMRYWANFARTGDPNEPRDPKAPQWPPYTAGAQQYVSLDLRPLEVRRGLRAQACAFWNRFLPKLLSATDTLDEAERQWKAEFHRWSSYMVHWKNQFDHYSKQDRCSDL
AChE, sequence (P22303 32-614): as above
BuChE, sequence (P06276 29-602): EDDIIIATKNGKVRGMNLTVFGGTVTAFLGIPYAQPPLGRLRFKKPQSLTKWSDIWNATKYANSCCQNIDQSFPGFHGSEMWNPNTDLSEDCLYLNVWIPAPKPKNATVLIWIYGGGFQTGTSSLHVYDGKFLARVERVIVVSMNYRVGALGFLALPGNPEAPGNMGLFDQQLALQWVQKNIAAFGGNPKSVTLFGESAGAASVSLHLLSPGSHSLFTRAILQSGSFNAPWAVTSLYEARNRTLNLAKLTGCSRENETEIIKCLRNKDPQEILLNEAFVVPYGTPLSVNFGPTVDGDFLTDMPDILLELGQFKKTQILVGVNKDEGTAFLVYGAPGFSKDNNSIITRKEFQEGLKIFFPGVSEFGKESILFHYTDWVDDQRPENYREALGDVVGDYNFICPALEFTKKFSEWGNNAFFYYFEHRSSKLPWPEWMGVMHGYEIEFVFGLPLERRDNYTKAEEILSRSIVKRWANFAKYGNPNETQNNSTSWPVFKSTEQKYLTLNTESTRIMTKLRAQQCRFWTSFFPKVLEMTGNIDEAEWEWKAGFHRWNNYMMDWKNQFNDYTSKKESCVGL

Structure (SMILES)	minimal effective dose [1, 6]	IC50 [2]	AChEI (%) 10 μM [3]	BuChEI (%) 10 μM [4]	other results
CCN(C)C(=O)Oc1cccc([C@H](C)N(C)C)c1 [Compound 1, S-rivastigmine, reference compound]	≤ 0.1 mg/kg	–	–	–	–
CC(NC(=O)Oc1cccc([C@H](C)N(C)C)c1)C12CC3CC(CC(C3)C1)C2 (stereo partly shown) [Compound 14, S-rivastigmine-rimantadine]	–	4.5 µM	77%	13%	AChEI (%) 1 μM [3]: 28%
CC(C)C[C@@H](CNC(=O)Oc1cccc([C@H](C)N(C)C)c1)CC(=O)O [Compound 18, S-riva pregabalin]	–	24.9 µM	–	–	–
C[C@@H](c1cccc(OC(=O)NCC(CC(=O)O)c2ccc(Cl)cc2)c1)N(C)C (stereo partly shown) [Compound 19, S-riva baclofen]	–	16.9 µM	–	–	–
C[C@@H](c1cccc(OC(=O)N2CCC(=C3c4ccc(Cl)cc4CCc4cccnc43)CC2)c1)N(C)C [Compound 15, S-rivastigmine-desloratidine]	–	12.5 µM	36%	6%	minimal effective dose [1]: 3 mg/kg; Max Tolerated Dose [5]: ≧100
C[C@@H](c1cccc(OC(=O)N(C)CCCN2c3ccccc3CCc3ccccc32)c1)N(C)C [Compound 4, S-rivastigmine-desipramine]	3 mg/kg	–	–	–	–
C[C@@H](c1cccc(OC(=O)N(C)CCC=C2c3ccccc3CCc3ccccc32)c1)N(C)C [Compound 5, S-rivastigmine-nortriptyline]	≤ 1 mg/kg	–	–	–	Max Tolerated Dose [5]: ≧100
C[C@@H](c1cccc(OC(=O)N2CCN(c3cc4c(cc3F)c(=O)c(C(=O)O)cn4C3CC3)CC2)c1)N(C)C [Compound 20, S-riva ciprofloxacin]	–	53.6 µM	–	–	–
CC(CC1CCCCC1)N(C)C(=O)Oc1cccc([C@H](C)N(C)C)c1 (stereo partly shown) [Compound 13, S-rivastigmine-propylhexedrine]	10 mg/kg	–	99%	100%	AChEI (%) 1 μM [3]: 62%; BuChEI (%) 1 μM [4]: 37%
C[C@@H](c1cccc(OC(=O)NC23CC4CC(CC(C4)C2)C3)c1)N(C)C [Compound 16, S-riva- amantadine]	–	72.1 µM	–	–	–
C[C@@H](c1cccc(OC(=O)N(C)CCC(Oc2ccc(C(F)(F)F)cc2)c2ccccc2)c1)N(C)C (stereo partly shown) [Compound 7, S-rivastigmine-fluoxetine]	3 mg/kg	–	–	–	–
C[C@@H](c1cccc(OC(=O)N2CCN(C3=Nc4ccccc4Oc4ccc(Cl)cc43)CC2)c1)N(C)C [Compound 3, S-rivastigmine-amoxapine]	10 mg/kg	–	–	–	–
C[C@@H](c1cccc(OC(=O)N(C)CCc2ccccn2)c1)N(C)C [Compound 11, S-rivastigmine-betahistine]	–	13.3 µM	47%	100%	BuChEI (%) 1 μM [4]: 45%; minimal effective dose [1]: < 1 mg/kg; Max Tolerated Dose [5]: 30
C[C@@H](c1cccc(OC(=O)N[C@@]23CC4C[C@@](C)(C[C@@](C)(C4)C2)C3)c1)N(C)C [Compound 17, S-riva memantine]	–	5.8 µM	–	–	–
C[C@@H](c1cccc(OC(=O)N[C@@H]2C[C@H]2c2ccccc2)c1)N(C)C [Compound 2, S-rivastigmine-tranylcypromine]	10 mg/kg	0.2 µM	97%	67%	AChEI (%) 1 μM [3]: 84%; BuChEI (%) 1 μM [4]: 23%; Max Tolerated Dose [5]: 30
CCOC(=O)C1=C(COCCNC(=O)Oc2cccc([C@H](C)N(C)C)c2)NC(C)=C(C(=O)OC)C1c1ccccc1Cl (stereo partly shown) [Compound 12, S-rivastigmine-amlodipine]	–	3.7 µM	79%	6%	AChEI (%) 1 μM [3]: 20%
C[C@@H](c1cccc(OC(=O)N(C)CCCC2c3ccccc3C=Cc3ccccc32)c1)N(C)C [Compound 6, S-rivastigmine-protriptyline]	100 mg/kg	–	–	–	–

From patent US8101782B2, “Compounds that inhibit cholinesterase” (priority 2007, dated 2012)
